Experiments:
[1] = test system: histamine-induced eye scratching behavior; test: Ocular pruritus inhibition activity to histamine-induced models; type: in vivo, guinea pig; settings: for number of eye scratching times in comparison with the control (in words): histamine-induced guinea pig model, instilled at 0.1%; for Eye scratching behavior inhibition ratio / Number of eye scratching times: male Hartley guinea pigs, 0.1% (w/v) instilled twice, 10 μl per eye; for Eye scratching behavior inhibition ratio: 30 minutes after instillation of 1.0% histamine, versus control; for Number of eye scratching times: average for 30 minutes after instillation of 1.0% histamine, control 6.1
Method: Compound A was dissolved in a 5.0% Tween 80/physiological saline solution at a concentration of 0.1% (w/v), and Compound B was suspended in a 5.0% Tween 80/physiological saline solution at a concentration of 0.1% (w/v), whereby the respective test compound solutions were prepared.
Each test compound solution was instilled into both eyes of 5-week-old male Hartley guinea pigs in an amount of 10 μl per eye. At 15 minutes thereafter, each test compound solution of the same concentration was instilled again (twice in total). As a control, a 5.0% Tween 80/physiological saline solution was used.
After 15 minutes from the second instillation of each test compound solution, a physiological saline solution in which histamine was dissolved at 1.0% (w/v) was instilled into both eyes of the above guinea pigs in an amount of 10 μl per eye to induce eye scratching behavior.
(§1) The behavior of the guinea pigs after the instillation of histamine was videotaped, and the ocular pruritus was evaluated for each eye by counting the number of times of a series of behaviors of scratching the eye with the hind paws. In Table 1, the average of the number of eye scratching times for 30 minutes after the instillation of histamine and the average of the eye scratching behavior inhibition ratio are shown. Each group consisted of 8 eyes.
(§2) Eye scratching behavior inhibition ratio (%)=100−(number of eye scratching times for test compound)/(number of eye scratching times for control)×100

[2] = test system: platelet activating factor-induced eye scratching behavior; test: Ocular pruritus inhibition activity to platelet activating factor-induced models; type: in vivo, guinea pig; settings: for Eye scratching behavior inhibition ratio / Number of eye scratching times: male Hartley guinea pigs, 10 μl per eye; for Eye scratching behavior inhibition ratio: 30 minutes after instillation of 0.1% platelet activating factor, versus control; for Number of eye scratching times: average for 30 minutes after instillation of 0.1% platelet activating factor, control 7.1
Method: as §2
Platelet activating factor-induced ocular pruritus evaluation models were prepared in accordance with the published method of Kato et al. (J. Ocul. Pharmacol. Ther. 2003; 19: 315-324). Compound C was dissolved in ultrapure water at a concentration of 0.01% or 0.1% (w/v), and each of the resulting solutions was instilled into both eyes of 5-week-old male Hartley guinea pigs in an amount of 10 μl per eye. At 15 minutes thereafter, each solution of Compound C of the same concentration was instilled again (twice in total). As a control, ultrapure water was used.
After 15 minutes from the second instillation of the solution of Compound C, a physiological saline solution in which a platelet activating factor was dissolved at 0.1% (w/v) was instilled into both eyes of the above guinea pigs in an amount of 10 μl per eye to induce eye scratching behavior.
as §1, with “the platelet activating factor” for “histamine”, “2,” for “1,”

Question: With `Cl.Oc1ccc(-c2nc(-c3ccc(F)cc3)c(-c3ccncc3)[nH]2)cc1` [Compound A, 4-(4-fluorophenyl)-2-(4-hydroxyphenyl)-5-(4-pyridyl)-1H-imidazole hydrochloride] as the molecule, how does the “number of eye scratching times in comparison with the control (in words)” value [1] read?
Answer: The value was “significantly decreased”.

Question: And the “Eye scratching behavior inhibition ratio” value [1]?
Answer: Its value is 77.0%.

Question: And the “Number of eye scratching times” value [1]?
Answer: The value was 1.4 times.

Question: Which results are given for `COc1nccc(-c2c(-c3ccc(F)cc3)ncn2[C@H]2CC[C@H](O)CC2)n1` [Compound B, trans-4-[4-(4-fluorophenyl)-5-(2-methoxy-4-pyrimidinyl)-1H-imidazole-1-yl]cyclohexanol]?
Answer: number of eye scratching times in comparison with the control (in words) [1]: significantly decreased; Eye scratching behavior inhibition ratio [1]: 36.1%; Number of eye scratching times [1]: 3.9 times

Question: Which results are given for `C[S+]([O-])c1ccc(-c2nc(-c3ccc(F)cc3)c(-c3ccncc3)[nH]2)cc1.Cl` (centres unmarked) [Compound C, 4-(4-fluorophenyl)-2-(4-methylsulfinylphenyl)-5-(4-pyridyl)-1H-imidazole hydrochloride]?
Answer: Eye scratching behavior inhibition ratio ([2]; 0.01% (w/v) instilled twice): 87.3%; Number of eye scratching times ([2]; 0.01% (w/v) instilled twice): 0.9 times; Eye scratching behavior inhibition ratio ([2]; 0.1% (w/v) instilled twice): 85.9%; Number of eye scratching times ([2]; 0.1% (w/v) instilled twice): 1.0 times; number of eye scratching times in comparison with the control (in words) ([2]; platelet activating factor-induced guinea pig model, instilled at 0.01% or 0.1%): significantly decreased
